{"source": "patent US20070191330A1", "about": "“Polyhydroxylated aromatic compounds for the treatment of amyloidosis and alpha-synuclein fibril diseases” (Proteotech, Inc., priority 1999, published 2007)", "assay_type_in_all_cases": "biochemical", "key": {"[1]": {"target": "T1, Alzheimer's Aβ 1-42 amyloid fibrils (Homo sapiens, UniProt P05067)", "T1 construct": "1 mg of Aβ 1-42 (Bachem Inc., Torrance, Calif., USA) was dissolved; purchased Bachem Inc., Torrance, Calif., USA", "T1 sequence (P05067 672-713)": "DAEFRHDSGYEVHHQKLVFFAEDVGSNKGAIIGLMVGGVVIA", "assay": "Disassembly/disruption of pre-formed Aβ 1-42 fibrils, Thioflavin T fluorometry", "conditions": "for inhibition at 100 µg/mL: read-out: Fluorescence inhibition, %, at the Aβ 1-42:compound w/w ratio 1:1", "experimental": "For the first study, 1 mg of Aβ 1-42 (Bachem Inc., Torrance, Calif., USA) was dissolved in 1.0 ml of double distilled water (1 mg/ml solution). 25 μM of Aβ 1-42 was then incubated overnight (˜18 hours) at 37° C., in the absence or presence of 100 μg/ml of the following compounds: 1) EDTA (Sigma Chemical Company, St. Louis, Mo., USA), 2) myricetin (Acros, Somerville, N.J., USA), 3) exifone (Acros) 4) pyrogallol (Sigma), 5) tannic acid (Acros), 6) pyrocatechol (Acros), 7) quercetin (Sigma), 8) ellagic acid (Acros), 9) 1,2,4-benzenetriol (Acros), 10) 5-hydroxydopamine (Acros), 11) gallamide hydrate (Acros), 12) gallic acid (Sigma), 13) ethyl gallate (Acros), 14) quinic acid (Acros), 15) propyl gallate (Sigma), and 16) phloroglucide (Acros), each in the presence of 150 mM Tris HCl, 10 mM NaCl (pH 7.0) with 0.02% sodium azide. In this study, the A 1-42:compound weight ratio was 1:1. […]\nThioflavin T is known to bind to fibrillar amyloid proteins, and an increase in fluorescence correlates with an increase in amyloid fibril formation, whereas a decrease in fluorescence correlates with a decrease in amyloid fibrils due to disassembly and/or disruption. The Alzheimer's Aβ protein (1-42) when placed in solution, such as distilled water, tends to spontaneously form amyloid fibrils. Using this sensitive assay, any decreases or increases in fluorescence was previously shown to correlate with a decrease or increase in the amount of amyloid fibrils (see the documents cited above), allowing one to identify and quantitate the extent of potential inhibitors and/or enhancers of Alzheimer's Aβ 1-42 amyloid fibrils.\nTo assess the effects of each compound on potential disassembly/disruption of preformed Aβ 1-42 fibrils, 50 μl of Aβ 1-42 with or without test compounds (described above) were added to 1.2 ml of 100 μM Thioflavin T (Sigma) in 50 mM NaH2PO4 (pH 6.0) for fluorometry readings. […] Fluorescence emission at 482 nm was measured on a Turner instrument-model 450 fluorometer at an excitation wavelength of 450 nm. For each determination, the fluorometer was calibrated by zeroing in the presence of the Thioflavin T reagent alone, and by setting the 50 ng/ml riboflavin (Sigma Chemical Co., St. Louis, Mo.) in the Thioflavin T reagent to 1800 fluorescence units. All fluorescence determinations were based on these references and any fluorescence given off by any of the compounds in the presence of the Thioflavin T reagent was always subtracted from all pertinent readings.\nFor all fibrillogenesis studies utilizing Thioflavin T fluorometry, as disclosed herein, comparisons of amyloid protein in the presence or absence of test compounds were based on paired Student's t tests with data shown as the mean of triplicate measurements±standard deviation."}, "human amylin fibrils": {"target": "T2, human amylin fibrils (Homo sapiens, UniProt P10997)", "T2 construct": "This amyloid protein involved consists of a 37 amino acid protein known as islet amyloid polypeptide or amylin; purchased Bachem", "T2 sequence (P10997 34-70 limits assumed)": "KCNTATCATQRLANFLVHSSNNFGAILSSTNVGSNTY", "assay": "Congo red staining of amylin fibrils on slides", "conditions": "overnight incubation of amylin with compound, compared with amylin alone", "experimental": "Following Thioflavin T fluorometry readings as described in Example 1, 5 μl aliquots of amylin only, amylin+myricetin, amylin+exifone, and amylin+tannic acid were also taken, allowed to air dry overnight on gelatin-coated slides, and stained with Congo red as previously described (Castillo et al., Diabetes 47:612-620, 1998)."}, "Aβ 1-40 amyloid fibrils": {"target": "T3, Aβ 1-40 amyloid fibrils (Homo sapiens, UniProt P05067)", "T3 construct": "1 mg of Aβ 1-40 (Bachem Inc., Torrance, Calif., USA; Lot # T-20824) was dissolved; purchased Bachem Inc., Torrance, Calif., USA", "T3 sequence (P05067 672-711)": "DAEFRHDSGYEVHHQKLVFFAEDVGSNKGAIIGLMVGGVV", "assay": "Dose-dependent disaggregation of fibrillized Aβ 1-40, Congo red-Aβ spectrophotometric assay", "conditions": "w/w 1:1, 100 μg/ml compound, 25 μM Aβ 1-40, overnight (~18 hours) at 37° C.", "experimental": "In this study, a Congo red-Aβ spectrophotometric assay (Klunk et al., Anal. Biochem. 266:66-76, 1999) was modified to determine the effectiveness of polyhydroxylated aromatic compounds on the disaggregation of pre-formed Aβ 1-40 amyloid fibrils. For this assay, 1 mg of Aβ 1-40 (Bachem) was incubated for 4 days in distilled water at 37° C. to spontaneously produce amyloid fibrils. […] Following incubation, 50 μl of 360 μM Congo red (Sigma) in distilled water was then added to 250 μl of each incubation mixture, giving a final Aβ:Congo red molar ratio of 1:3. After 10 minutes, the absorbance at 405 nm (reference wavelength to account for the absorbance of Congo red alone at 540 nm) and 540 nm (sample absorbance where “sample” refers to Aβ alone, test compound alone, or Aβ plus test compound, all in the presence of Congo red) was determined using a Biorad Model 550 ELISA Plate Reader (Biorad, Hercules, Calif., USA). The absorbance at wavelength 405 nm was automatically subtracted by the ELISA plate reader from the absorbance at wavelength 540 nm (difference is referred to as A absorbance)(see Klunk et al. cited above). Therefore, the A absorbance reading at 540 nm was proportional to the amount of aggregated Aβ left in solution (Klunk et al.). […]\nIn this study, the potential dose-dependent effects of tannic acid and gallic acid on the disaggregation of fibrillized Aβ 1-40 was assessed. […]"}, "[2]": {"conditions": "Aβ 1-42:compound w/w 1:1, 100 μg/ml compound, 25 μM Aβ 1-42, overnight (~18 hours) at 37° C., mean of triplicate ± SD"}}, "note": "Like-named read-outs stand apart in the source and are kept apart here.", "data": [{"smiles": "Oc1ccc(O)c(O)c1", "note": "[1,2,4-Benzenetriol, 1,2,4-benzenetriol]", "values": [{"measurement": "inhibition at 100 µg/mL", "setting": "[1]; [2]", "result": "71 ± 3.3", "unit": "%"}]}, {"smiles": "NCCc1cc(O)c(O)c(O)c1", "note": "[5-Hydroxydopamine, 5-hydroxydopamine]", "values": [{"measurement": "inhibition at 100 µg/mL", "setting": "[1]; [2]", "result": "70 ± 1.1", "unit": "%"}]}, {"smiles": "O=C(O)CN(CCN(CC(=O)O)CC(=O)O)CC(=O)O", "note": "[EDTA, reference compound]", "values": [{"measurement": "Disassembly/disruption of Aβ 1-42 amyloid fibrils (result in words)", "setting": "[1]; 100 μg/ml, 25 μM Aβ 1-42, overnight (~18 hours) at 37° C., Thioflavin T fluorometry", "result": "no significant disassembly/disruption"}]}, {"smiles": "O=c1oc2c(O)c(O)cc3c(=O)oc4c(O)c(O)cc1c4c23", "note": "[Ellagic acid, ellagic acid]", "values": [{"measurement": "inhibition at 100 µg/mL", "setting": "[1]; [2]", "result": "74 ± 1.4", "unit": "%"}]}, {"smiles": "CCOC(=O)c1cc(O)c(O)c(O)c1", "note": "[Ethyl gallate, ethyl gallate]", "values": [{"measurement": "inhibition at 100 µg/mL", "setting": "[1]; [2]", "result": "49 ± 0.8", "unit": "%"}]}, {"smiles": "O=C(c1cc(O)c(O)c(O)c1)c1ccc(O)c(O)c1O", "note": "[Exifone, exifone]", "values": [{"measurement": "inhibition at 100 µg/mL", "setting": "[1]; 18 h", "result": "93 ± 1.4", "unit": "%"}, {"measurement": "Congo red staining of amylin fibrils (red/green birefringence under polarized light)", "setting": "human amylin fibrils", "result": "marked decrease in Congo red staining"}]}, {"smiles": "NC(=O)c1cc(O)c(O)c(O)c1", "note": "[Gallamide trihydrate, gallamide trihydrate]", "values": [{"measurement": "inhibition at 100 µg/mL", "setting": "[1]; 18 h", "result": "65 ± 12.3", "unit": "%"}]}, {"smiles": "O=C(O)c1cc(O)c(O)c(O)c1", "note": "[Gallic acid, gallic acid]", "values": [{"measurement": "inhibition at 100 µg/mL", "setting": "[1]; [2]", "result": "57 ± 1.9", "unit": "%"}, {"measurement": "Decrease in absorbance, %, at the Aβ 1-40:compound w/w ratio 1:1", "setting": "Aβ 1-40 amyloid fibrils", "result": "32 ± 4.8", "unit": "%"}]}, {"smiles": "O=c1c(O)c(-c2cc(O)c(O)c(O)c2)oc2cc(O)cc(O)c12", "note": "[Myricetin, myricetin]", "values": [{"measurement": "inhibition at 100 µg/mL", "setting": "[1]; 18 h", "result": "94 ± 0.9", "unit": "%"}, {"measurement": "Congo red staining of amylin fibrils (red/green birefringence under polarized light)", "setting": "human amylin fibrils", "result": "marked decrease in Congo red staining"}]}, {"smiles": "CCCOC(=O)c1cc(O)c(O)c(O)c1", "note": "[Propyl gallate, propyl gallate]", "values": [{"measurement": "inhibition at 100 µg/mL", "setting": "[1]; [2]", "result": "29 ± 2.8", "unit": "%"}]}, {"smiles": "Oc1ccccc1O", "note": "[Pyrocatechol, pyrocatechol]", "values": [{"measurement": "inhibition at 100 µg/mL", "setting": "[1]; [2]", "result": "77 ± 2.6", "unit": "%"}]}, {"smiles": "Oc1cccc(O)c1O", "note": "[Pyrogallol, pyrogallol]", "values": [{"measurement": "inhibition at 100 µg/mL", "setting": "[1]; [2]", "result": "89 ± 6.7", "unit": "%"}]}, {"smiles": "O=c1c(O)c(-c2ccc(O)c(O)c2)oc2cc(O)cc(O)c12", "note": "[Quercetin, quercetin]", "values": [{"measurement": "Fluorescence inhibition, %, at the Aβ 1-42:compound w/w ratio 1:1", "setting": "[1]; [2]", "result": "76 ± 0.6", "unit": "%"}]}, {"smiles": "O=C(O)[C@]1(O)C[C@@H](O)[C@@H](O)[C@H](O)C1", "note": "[Quinic acid, quinic acid]", "values": [{"measurement": "inhibition at 100 µg/mL", "setting": "[1]; [2]", "result": "31 ± 9", "unit": "%"}]}, {"smiles": "O=C(OC[C@H]1O[C@@H](OC(=O)c2cc(O)c(O)c(OC(=O)c3cc(O)c(O)c(O)c3)c2)[C@H](OC(=O)c2cc(O)c(O)c(OC(=O)c3cc(O)c(O)c(O)c3)c2)[C@@H](OC(=O)c2cc(O)c(O)c(OC(=O)c3cc(O)c(O)c(O)c3)c2)[C@@H]1OC(=O)c1cc(O)c(O)c(OC(=O)c2cc(O)c(O)c(O)c2)c1)c1cc(O)c(O)c(OC(=O)c2cc(O)c(O)c(O)c2)c1", "note": "[Tannic acid, tannic acid]", "values": [{"measurement": "inhibition at 100 µg/mL", "setting": "[1]; 18 h", "result": "77 ± 1.3", "unit": "%"}, {"measurement": "Congo red staining of amylin fibrils (red/green birefringence under polarized light)", "setting": "human amylin fibrils", "result": "marked decrease in Congo red staining"}]}]}
